Values joined by “and” are separate entries in the source; they are usually repeats but may differ in a detail not shown here. Equal values may be shown once. “Also recorded” adds a separate entry of the source. Read-outs that look alike come from different tables or passages of the source. Non-standard residues stand in square brackets, D forms with d. Residues, ends and D or L forms follow the SMILES beside them. *: point of attachment. Dolaproine = CO[C@@H]([C@@H]1CCCN1)[C@@H](C)C(=O)O; Dil = CC[C@H](C)[C@H](NC)[C@@H](CC(=O)O)OC; X1 = C[C@@H](N*)[C@@H](O)c1ccccc1; NMeV = CN[C@H](C(=O)O)C(C)C
What was measured:
Format in all cases: cell-based, Human
[1] = tested on: 779E cells; assay: Alamar Blue cell viability assay
Method: (§1) Cells were plated in 96 well plates at varying cell densities and exposed to range of concentrations of MMAE or paclitaxel for 72 hrs. Alamar Blue (also known as resazurin) was added to the cells and allowed to incubate for 2 hrs at 37° C. Plates were analyzed using a plate reader with fluorescence measured at 560 nm. For irradiated cells, cells were treated with MMAE overnight followed by 6 Gy.
(§2) Cells were plated in 96-well plates and exposed to MMAE or paclitaxel for 72 hours and analyzed at 560 nm. For irradiated cells, cells were treated with MMAE overnight followed by 6 Gy.

[2] = tested on: PANC-1 cells; assay: Alamar Blue cell viability assay
Method: as §1, §2

[3] = tested on: HCT-116 cells; assay: γH2Ax immunostaining (foci formation)
Method: (§3) Cells were grown on glass cover slips were treated with indicated concentrations of MMAE overnight and then irradiated. Two hours post IR, cells were fixed in 4% paraformaldehyde. Samples were then permeabilized in 0.25% Triton X-100, blocked in 1% BSA, incubated with antibody to γH2Ax for 1 hr at room temperature, washed, and incubated in secondary antibody for 1 hour at room temperature. Samples were incubated for 1 minute in a 1:5000 dilution of DAPI to label nuclei. The number of foci per cell was counted. 6-8 high power fields were counted per each group.
(§4) Cells grown on glass coverslips were treated with MMAE overnight and then irradiated. Two hours after IR, cells were fixed, permeabilized, and stained with antibody to […]. Nuclei were stained with 4′,6-diamidino-2-phenylindole (DAPI). Foci were counted in 6 to 8 high-power fields per group.

[4] = tested on: PANC-1 cells; assay: γH2Ax immunostaining (foci formation)
Method: as §3, §4

[5] = tested on: cyclin B; assay: Immunoblot for cell phase-specific cyclins in HCT-116 cells; settings: 5 nmol/L MMAE, 24-hour exposure
Method: MMAE- and IR-treated cells were harvested and lysed in RIPA buffer with protease and phosphatase inhibitors (Roche). Thirty micrograms of lysate underwent electrophoresis using 4% to 12% Bis-Tris gels (Life Technologies), transferred to polyvinylidene difluoride (PVDF) membranes, and incubated with indicated primary antibodies (Cell Signaling Technology). Blots were developed by ECL (Pierce).
Because MMAE blocks cells in the radiosensitive G2-M phase of the cell cycle, we tested whether MMAE specifically interacted with IR. We hypothesized that while a short exposure to MMAE would not influence radiosensitivity, prolonged MMAE exposure with cells accumulating in G2-M would increase sensitivity to IR. DNA double-stand breaks are a hallmark of IR damage and can be measured by neutral comet assay. HCT-116 cells were treated with 5 nmol/L MMAE for varying lengths of time (0, 2, 4, or 24 hours) and then irradiated (FIG. 34A).

[6] = tested on: CAL-27 cells; assay: Cell cycle analysis by flow cytometry (PI); settings: 5 nM, 24 hrs
Method: Cells were treated with RNAse, stained with propidium iodide (PI) and analyzed by FACS using FloJo software.

[7] = tested on: CAL-27 cells; assay: Alamar Blue cell viability assay; settings: 72 hours
Method: Alamar Blue (resazurin) was added to the cells and allowed to incubate for 2 hrs at 37° C. Plates were analyzed using a plate reader with fluorescence measured at 560 nm.

CC[C@H](C)[C@@H]([C@@H](CC(=O)N1CCC[C@H]1[C@H](OC)[C@@H](C)C(=O)N[C@H](C)[C@@H](O)c1ccccc1)OC)N(C)C(=O)[C@@H](NC(=O)[C@@H](NC)C(C)C)C(C)C [MMAE, monomethyl auristatin E] (H-[NMeV]V[Dil][Dolaproine]-X1) was tested, and the IC50 ([1]; 72 hours exposure) was 5.61 nM, the IC50 ([1]; 72 hours exposure (Example 3)) was 5.6 nM and the IC50 ([2]; 72 hours exposure (Example 3), read-out: IC50) was 0.6 nM. For the same compound, the IC50 ([2]; 72 hours exposure, read-out: IC50) was 0.6 nM, the IC50 ([2]; IR 6 Gy combined with MMAE (Example 3), read-out: IC50 for MMAE) was 0.4 nM and the IC50 ([2]; MMAE alone, no IR, continuous exposure, viability at 72 hours, read-out: IC50 for MMAE) was 0.81 nM. The IC50 ([2]; MMAE overnight then 6 Gy IR, continuous exposure, viability at 72 hours, read-out: IC50 for MMAE) was 0.35 nM, the “relative reduction in the IC50 of MMAE” value ([2]; MMAE with 6 Gy IR vs MMAE alone) was > 50% and ~50% and the IC50 ([2]; non-irradiated (Example 3), read-out: IC50 for MMAE) was 0.8 nM. The “γH2AX foci formation vs IR alone” value ([3]; MMAE pre-treatment, then IR) was “also seen in HCT-116 cells; also recorded: significantly increased”, the “DNA damage (γH2AX)” value ([3]; nonirradiated cells) was “did not alter DNA damage” and the “γH2AX foci formation vs IR alone” value ([4]; MMAE pre-treatment, then IR) was “further significant enhancement; also recorded: significantly increased”. For the same compound, the “γH2AX staining vs vehicle” value ([4]; non-irradiated cells) was “did not significantly increase; also recorded: did not alter DNA damage”, the accumulation of cyclins [5] was “specific accumulation of the G2-M cyclin B” and the “cells in G2/M” value [6] was 60%. The IC50 [7] was 1.1 nM.
